{
  "source": "paper PMC3105069",
  "about": "“Nicotinic Acid Receptor Abnormalities in Human Skin Cancer: Implications for a Role in Epidermal Differentiation” (PLoS ONE, 2011)",
  "biological_target": "T1, GPR109B (Homo sapiens, UniProt P49019)",
  "T1 construct": "gene HCAR3",
  "T1 sequence (P49019 whole entry)": "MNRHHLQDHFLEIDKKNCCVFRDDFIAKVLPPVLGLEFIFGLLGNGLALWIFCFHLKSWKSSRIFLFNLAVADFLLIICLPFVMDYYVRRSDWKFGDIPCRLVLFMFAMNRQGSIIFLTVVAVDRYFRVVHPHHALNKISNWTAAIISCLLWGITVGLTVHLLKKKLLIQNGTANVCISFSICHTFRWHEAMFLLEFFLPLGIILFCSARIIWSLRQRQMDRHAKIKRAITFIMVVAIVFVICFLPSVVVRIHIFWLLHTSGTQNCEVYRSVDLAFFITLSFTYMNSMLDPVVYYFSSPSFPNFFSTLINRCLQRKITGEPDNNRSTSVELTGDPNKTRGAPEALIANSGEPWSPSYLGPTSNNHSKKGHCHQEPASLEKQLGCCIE",
  "data": [
    {"compound": "O=C(O)c1cccnc1", "note": "[nicotinic acid]", "values": [
      {"measurement": "EC50", "value": 25, "unit": "µM"}
    ]}
  ]
}
